According to the NIST ThermoML archive (doi:10.1021/je3003783):
Numbers after ± are expanded uncertainties.

Settings: 101.33 kPa, Liquid, Vibrating tube method

mass density (298.15 K)	mass density (323.15 K)	mass density (348.15 K)	mass density (363.15 K)	SMILES
1081.59 ± 0.38 kg/m3	1067.28 ± 0.37 kg/m3	1053.35 ± 0.35 kg/m3	1045.06 ± 0.34 kg/m3	CCCCn1cc[n+](C)c1.[Cl-] [1-butyl-3-methylimidazolium chloride]
1012.35 ± 0.31 kg/m3	998.05 ± 0.3 kg/m3	983.99 ± 0.3 kg/m3	975.67 ± 0.3 kg/m3	CCCCCCCC[n+]1ccn(C)c1.[Cl-] [1-methyl-3-octylimidazolium chloride]

SMILES	mass density (298.15 K)	mass density (323.15 K)	mass density (348.15 K)	mass density (363.15 K)
CCCCCCn1cc[n+](C)c1.[Cl-] [1-hexyl-3-methylimidazolium chloride]	1040.92 ± 0.34 kg/m3	1026.73 ± 0.32 kg/m3	1012.81 ± 0.31 kg/m3	1004.49 ± 0.3 kg/m3
